The values that follow come from US20240309005A1 (priority 2021, published 2024).

In brackets after ≈: the same amount, converted by molar mass.

Data set [1] can be described thus: physchem. As to conditions: 25 °C, kinetic from dmso stock.
In data set [2] the test system is hERG / SGK1 (whole cell).
The target in data set [3] is CYP2C9 (Homo sapiens (Human), UniProt P11712). As to the kind of experiment: in vitro. The following applies: microsomes.
Data set [4] concerns the target CYP2D6 (Homo sapiens (Human), UniProt P10635). As to the kind of experiment: in vitro. As to conditions: microsomes.
In data set [5] the test system is CYP3A4. As to the kind of experiment: in vitro. The following applies: human, microsomes.
Data set [6] has as its target CYP1A2 (Homo sapiens (Human), UniProt P05177). As to the kind of experiment: in vitro. As to conditions: microsomes.
In data set [7] the target is CYP2B6 (Homo sapiens (Human), UniProt P20813). As to the kind of experiment: in vitro. The following applies: microsomes.
Chain of CYP2B6 (P20813 whole entry): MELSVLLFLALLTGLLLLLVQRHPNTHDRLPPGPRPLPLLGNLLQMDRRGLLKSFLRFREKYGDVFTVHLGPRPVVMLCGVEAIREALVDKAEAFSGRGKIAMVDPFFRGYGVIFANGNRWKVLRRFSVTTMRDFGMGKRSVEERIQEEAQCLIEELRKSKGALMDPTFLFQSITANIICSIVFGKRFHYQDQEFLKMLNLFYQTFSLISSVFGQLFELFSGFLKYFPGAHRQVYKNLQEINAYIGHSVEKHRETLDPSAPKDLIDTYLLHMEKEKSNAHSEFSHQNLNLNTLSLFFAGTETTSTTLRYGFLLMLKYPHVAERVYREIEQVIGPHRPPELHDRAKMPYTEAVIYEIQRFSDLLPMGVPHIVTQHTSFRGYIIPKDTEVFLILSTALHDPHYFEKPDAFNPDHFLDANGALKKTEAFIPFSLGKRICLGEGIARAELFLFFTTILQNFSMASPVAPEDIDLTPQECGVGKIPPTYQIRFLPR
The nature of data set [8]: in vivo. As to conditions: male, CD1, mouse; for Cmax / bioavailability: po, 30 mg/kg.
The conditions of data set [9]: male, SD, in vivo.
Data set [10] in a line: in vivo. The following applies: male, SD, rat; for bioavailability / Cmax: po, 30 mg/kg.

Chain of CYP2C9 (P11712 whole entry): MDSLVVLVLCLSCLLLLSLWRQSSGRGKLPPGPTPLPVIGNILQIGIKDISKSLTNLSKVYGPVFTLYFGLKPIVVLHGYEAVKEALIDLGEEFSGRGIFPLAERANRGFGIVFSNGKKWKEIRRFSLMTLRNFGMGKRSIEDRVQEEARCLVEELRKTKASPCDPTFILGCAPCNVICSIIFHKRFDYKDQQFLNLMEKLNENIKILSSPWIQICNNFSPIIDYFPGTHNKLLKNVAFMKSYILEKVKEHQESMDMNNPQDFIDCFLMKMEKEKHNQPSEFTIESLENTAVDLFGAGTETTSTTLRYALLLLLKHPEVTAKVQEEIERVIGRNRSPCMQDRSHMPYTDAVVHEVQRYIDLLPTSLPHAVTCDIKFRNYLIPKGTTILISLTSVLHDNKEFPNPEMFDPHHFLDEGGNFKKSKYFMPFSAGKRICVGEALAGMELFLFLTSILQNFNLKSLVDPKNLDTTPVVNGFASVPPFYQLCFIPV
Chain of CYP2D6 (P10635 whole entry): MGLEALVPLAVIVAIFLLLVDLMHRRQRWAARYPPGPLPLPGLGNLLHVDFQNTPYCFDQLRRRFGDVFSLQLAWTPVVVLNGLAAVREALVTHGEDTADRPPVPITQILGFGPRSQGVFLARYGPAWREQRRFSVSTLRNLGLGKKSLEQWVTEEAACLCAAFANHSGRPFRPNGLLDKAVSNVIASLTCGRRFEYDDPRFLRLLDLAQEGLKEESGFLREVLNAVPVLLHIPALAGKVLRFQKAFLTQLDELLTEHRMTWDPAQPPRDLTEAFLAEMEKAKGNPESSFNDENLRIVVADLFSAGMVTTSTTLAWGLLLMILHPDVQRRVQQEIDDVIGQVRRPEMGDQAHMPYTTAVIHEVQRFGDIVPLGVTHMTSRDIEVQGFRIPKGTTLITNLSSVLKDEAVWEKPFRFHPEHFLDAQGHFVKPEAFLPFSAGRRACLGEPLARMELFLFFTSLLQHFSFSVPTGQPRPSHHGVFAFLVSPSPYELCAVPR
Chain of CYP1A2 (P05177 whole entry): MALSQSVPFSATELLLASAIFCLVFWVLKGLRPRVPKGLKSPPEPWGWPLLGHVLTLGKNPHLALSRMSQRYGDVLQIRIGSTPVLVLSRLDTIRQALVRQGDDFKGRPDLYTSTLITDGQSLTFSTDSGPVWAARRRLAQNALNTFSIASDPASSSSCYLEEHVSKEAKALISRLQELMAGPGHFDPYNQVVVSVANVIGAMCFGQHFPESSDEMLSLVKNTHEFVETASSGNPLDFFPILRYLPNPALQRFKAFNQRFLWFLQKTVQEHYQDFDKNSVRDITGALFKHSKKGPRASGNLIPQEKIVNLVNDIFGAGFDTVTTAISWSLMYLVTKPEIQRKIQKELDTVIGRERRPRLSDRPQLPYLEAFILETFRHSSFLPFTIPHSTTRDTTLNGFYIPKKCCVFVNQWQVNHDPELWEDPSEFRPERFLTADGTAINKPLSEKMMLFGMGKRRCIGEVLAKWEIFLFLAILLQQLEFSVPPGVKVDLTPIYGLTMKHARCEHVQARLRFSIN

Turning to `Cc1n[nH]c2nc(-c3ccc(NS(=O)(=O)c4cccnc4)cc3)nc(NCCN(C)C)c12` [Compound 23, N-[4-(4-[[2-(dimethylamino)ethyl]amino]-3-methyl-1H-pyrazolo[3,4-d]pyrimidin-6-yl)phenyl]pyridine-3-sulfonamide], the solubility (commonly the dissolved amount per volume that the medium holds) at 2 h in [1] (pH 5, fessif) was 274 µM (≈ 124 µg/mL); in data set [1] (pH 7.4, aqueous buffer) it was 13.7 µM (≈ 6.2 µg/mL). The same compound showed a hERG/IC50 in [2] of 4.1.
For `Cc1n[nH]c2nc(-c3ccc(NS(=O)(=O)N4CCCC4)cc3)nc(OC3CCN(C(C)C)CC3)c12` [Compound 2, N-(4-(4-((1-isopropylpiperidin-4-yl)oxy)-3-methyl-1H-pyrazolo[3,4-d]pyrimidin-6-yl)phenyl)pyrrolidine-1-sulfonamide], the solubility at 2 h in data set [1] (pH 5, fessif) is 291 µM (≈ 145 µg/mL); in [1] (pH 7.4, aqueous buffer), 59.1 µM (≈ 29.5 µg/mL). Further, the inhibition – broadly, the change of the read-out against control, counted positive when it falls – at 20 min, 10 µM in [3] was 13%; in [4], 7.3%; in data set [6] it was 5.9%; in data set [7], -5%. In addition, the inhibition at 5 min, 10 µM in data set [5] was determined as 7%. Besides, the inhibition at 10 min, 10 µM in [5] came out at 13%.
Take `Cc1n[nH]c2nc(-c3ccc(NS(=O)(=O)c4ccccn4)cc3)nc(NCCN(C)C)c12` [Compound 24, N-[4-(4-[[2-(dimethylamino)ethyl]amino]-3-methyl-1H-pyrazolo[3,4-d]pyrimidin-6-yl)phenyl]pyridine-2-sulfonamide]: the concentration in solution in data set [1] (pH 5, fessif) (solubility at 2 h) was 300 µM (≈ 136 µg/mL). In addition, the solubility at 2 h in data set [1] (pH 7.4, aqueous buffer) is 278 µM (≈ 126 µg/mL). The same compound yielded a hERG/IC50 in data set [2] of 20.7. In data set [8], the half-life (usually how long it takes for the measured level to halve) was 2.3 h; the Cmax – broadly, the maximum level reached in the sampled fluid or tissue – was 45.1 ng/mL; the bioavailability was found to be 1.55%.
Consider `Cc1n[nH]c2nc(-c3ccc(NS(=O)(=O)c4ccncc4F)cc3)nc(NCCN(C)C)c12` [Compound 15, N-[4-(4-[[2-(dimethylamino)ethyl]amino]-3-methyl-1H-pyrazolo[3,4-d]pyrimidin-6-yl)phenyl]-3-fluoropyridine-4-sulfonamide], for which the solubility at 2 h worked out at 289 µM (≈ 136 µg/mL) in data set [1] (pH 5, fessif) and 282 µM (≈ 133 µg/mL) in data set [1] (pH 7.4, aqueous buffer). In [2], this compound registered a hERG/IC50 of 4.7.
Regarding `Cc1n[nH]c2nc(-c3ccc(NS(=O)(=O)c4cc(F)ccc4F)cc3)nc(NCCN(C)C)c12` [Compound 45, N-(4-(4-((2-(dimethylamino)ethyl)amino)-3-methyl-1H-pyrazolo[3,4-d]pyrimidin-6-yl)phenyl)-2,5-difluorobenzenesulfonamide], the solubility at 2 h in data set [1] (pH 5, fessif) amounted to 277 µM (≈ 135 µg/mL); in data set [1] (pH 7.4, aqueous buffer), 7.98 µM (≈ 3.89 µg/mL). In data set [9], the “pK Data in Rat: F” value is recorded as “Cmax = 131 ng/mL F = 4.7%”. In addition, the half-life in data set [10] was 3.63 h. The bioavailability in data set [10] worked out at 4.68%. For the same compound, the Cmax in data set [10] (Cmax (ng/ml)) and in data set [10] (pK Data in Rat: Cmax) was 131 ng/mL in each case.
Consider `Cc1n[nH]c2nc(-c3ccc(NS(=O)(=O)c4cc(Cl)ccc4F)c(F)c3)nc(NCCN(C)CCO)c12` [Compound 78, 5-chloro-2-fluoro-N-{2-fluoro-4-[4-({2-[(2-hydroxyethyl)(methyl)amino]ethyl}amino)-3-methyl-1H-pyrazolo[3,4-d]pyrimidin-6-yl]phenyl}benzenesulfonamide], for which the solubility at 2 h in data set [1] (pH 5, fessif) was determined as 275 µM (≈ 152 µg/mL). The compound further came in with a solubility at 2 h in [1] (pH 7.4, aqueous buffer) of 16 µM (≈ 8.83 µg/mL). Also, in data set [8], the half-life was 2.5 h, the concentration peaked (Cmax) at 111 ng/mL and the bioavailability is 4.9%. Besides, the “pK Data in Rat: F” value in data set [9] is “Cmax = 69 ng/mL F = 4.9%”. This compound also yielded a Cmax in [10] (pK Data in Rat: Cmax) of 69 ng/mL.
Regarding `Cc1n[nH]c2nc(-c3ccc(NS(=O)(=O)c4cc(C(F)(F)F)ccn4)cc3)nc(O[C@@H]3CCN(C)C[C@@H]3F)c12` [Compound 63, N-[4-(4-{[(3S,4R)-3-fluoro-1-methylpiperidin-4-yl]oxy}-3-methyl-1H-pyrazolo[3,4-d]pyrimidin-6-yl)phenyl]-4-(trifluoromethyl)pyridine-2-sulfonamide], the solubility at 2 h in data set [1] (pH 5, fessif) worked out at 205 µM (≈ 116 µg/mL); in data set [1] (pH 7.4, aqueous buffer), 1.9 µM (≈ 1.07 µg/mL). This compound showed a half-life in data set [8] of 12 h. In [8], this compound showed a peak concentration (Cmax) of 1120 ng/mL. Further, the inhibition at 20 min, 10 µM came out at 65% in data set [3], 7.5% in [4], 2.4% in data set [6] and 12% in [7]. Besides, in [5], the inhibition at 5 min, 10 µM was -24%. The inhibition at 10 min, 10 µM in data set [5] is -2%.
On to `Cc1n[nH]c2nc(-c3ccc(NS(=O)(=O)c4cc(Cl)ccc4F)c(F)c3)nc(OC3CCN(C(C)C)CC3)c12` [Compound 28], for which the solubility at 2 h in data set [1] (pH 5, fessif) is 293 µM (≈ 169 µg/mL). In addition, in [1] (pH 7.4, aqueous buffer), the concentration in solution (solubility at 2 h) came to 1.7 µM (≈ 0.981 µg/mL). Besides, in [8], the half-life was 3.4 h, the peak level (Cmax) was 4020 ng/mL and the bioavailability is 51%. Further, in data set [9], the “pK Data in Rat: F” value is “Cmax = 4017 ng/mL F = 51%”. Besides, the Cmax in [10] (pK Data in Rat: Cmax) came out at 4020 ng/mL.
`Cc1n[nH]c2nc(-c3ccc(NS(=O)(=O)c4cc(Cl)ccc4F)c(F)c3)nc(OC3CCN(C)CC3)c12` [Compound 79, 5-chloro-2-fluoro-N-(2-fluoro-4-{3-methyl-4-[(1-methylpiperidin-4-yl)oxy]-1H-pyrazolo[3,4-d]pyrimidin-6-yl}phenyl)benzenesulfonamide]: the solubility at 2 h in data set [1] (pH 5, fessif) came out at 321 µM (≈ 176 µg/mL); in [1] (pH 7.4, aqueous buffer) it was 2.6 µM (≈ 1.43 µg/mL). In addition, the half-life in data set [8] is 3 h; in [10] it was 5.06 h. Moreover, the maximum concentration (Cmax) in [8] came out at 3720 ng/mL; in data set [10] (Cmax (ng/ml)) it was 3400 ng/mL. The bioavailability in [8] came out at 128%; in data set [10], 40.5%.
For `Cc1nc2c([nH]1)c(=O)n(C)c(=O)n2Cc1ccco1` [Furafylline], the inhibition at 20 min, 10 µM in data set [6] amounted to 78%.
Take `Cc1n[nH]c2nc(-c3ccc(NS(=O)(=O)c4cc(Cl)ccc4F)cc3)nc(OCCN(C)CCO)c12` [Compound 86, 5-chloro-2-fluoro-N-[4-(4-{2-[(2-hydroxyethyl)(methyl)amino]ethoxy}-3-methyl-1H-pyrazolo[3,4-d]pyrimidin-6-yl)phenyl]benzenesulfonamide]: the solubility at 2 h in data set [1] (pH 5, fessif) was determined as 75 µM (≈ 40.1 µg/mL); in data set [1] (pH 7.4, aqueous buffer), 0.66 µM (≈ 0.353 µg/mL). The figures for the half-life in data set [8] and in data set [10] were 26 h and 4.9 h, respectively. The highest concentration (Cmax) was determined as 40.9 ng/mL in [8] and 354 ng/mL in data set [10] (Cmax (ng/ml)). The values for the bioavailability in data set [8] and in data set [10] were 3.1% and 6.7%, respectively.
In the case of `Cc1n[nH]c2nc(-c3ccc(NS(=O)(=O)c4cc(Cl)ccc4F)cc3)nc(NCCN(C)CCO)c12` [Compound 22, 5-chloro-2-fluoro-N-[4-[4-([2-[(2-hydroxyethyl)(methyl)amino]ethyl]amino)-3-methyl-1H-pyrazolo[3,4-d]pyrimidin-6-yl]phenyl]benzenesulfonamide], the solubility at 2 h in [1] (pH 5, fessif) turned out to be 289 µM (≈ 154 µg/mL); in [1] (pH 7.4, aqueous buffer) it was 8.37 µM (≈ 4.47 µg/mL). In addition, the hERG/IC50 in data set [2] amounted to 201. Also, the values for the half-life in data set [8] and in [10] were 2.3 h and 5.14 h, respectively. For the same compound, the highest concentration (Cmax) worked out at 37.9 ng/mL in data set [8], 41.9 ng/mL in data set [10] (Cmax (ng/ml)) and 42 ng/mL in data set [10] (pK Data in Rat: Cmax). In addition, the bioavailability came out at 2.5% in data set [8] and 2.79% in [10]. In data set [9], the “pK Data in Rat: F” value is given as “Cmax = 42 ng/mL F = 2.8%”.
For `Cc1n[nH]c2nc(-c3ccc(NS(=O)(=O)c4cc(Cl)ccc4F)cc3)nc(O[C@@H]3CCNCC3(F)F)c12` [Compound 44, (R)-5-chloro-N-(4-(4-((3,3-difluoropiperidin-4-yl)oxy)-3-methyl-1H-pyrazolo[3,4-d]pyrimidin-6-yl)phenyl)-2-fluorobenzenesulfonamide], the inhibition at 20 min, 10 µM in data set [3] worked out at 92%; in [4], 44%; in data set [6] it was 11%; in data set [7], 39%. Besides, the inhibition at 5 min, 10 µM in data set [5] was 93%. The inhibition at 10 min, 10 µM in data set [5] worked out at 91%.
For `Cc1n[nH]c2nc(-c3ccc(NS(=O)(=O)c4cc(Cl)ccc4F)c(Cl)c3)nc(NCCN(C)CCO)c12` [Compound 99, 5-chloro-N-{2-chloro-4-[4-({2-[(2-hydroxyethyl)(methyl)amino]ethyl}amino)-3-methyl-1H-pyrazolo[3,4-d]pyrimidin-6-yl]phenyl}-2-fluorobenzenesulfonamide], in [2], the hERG/IC50 came to 91. Moreover, the “pK Data in Rat: F” value in [9] is “Cmax = 141 ng/mL F = 5.6%”. In data set [10], the half-life is 10 h. Besides, the bioavailability in [10] was 5.6%. In addition, the Cmax in data set [10] (Cmax (ng/ml)) and in data set [10] (pK Data in Rat: Cmax) was 141 ng/mL throughout.
Take `COc1ccnc(S(=O)(=O)Nc2ccc(-c3nc(NCCN(C)C)c4c(C)n[nH]c4n3)cc2)c1` [Compound 27, N-(4-(4-((2-(dimethylamino)ethyl)amino)-3-methyl-1H-pyrazolo[3,4-d]pyrimidin-6-yl)phenyl)-4-methoxypyridine-2-sulfonamide]: the solubility at 2 h in data set [1] (pH 5, fessif) was determined as 256 µM (≈ 124 µg/mL). For the same compound, the solubility at 2 h in data set [1] (pH 7.4, aqueous buffer) was determined as 36.5 µM (≈ 17.6 µg/mL). Also, the hERG/IC50 in [2] stood at 341. In data set [8], this compound had a half-life of 2.7 h and a Cmax of 40.3 ng/mL.
The compound `COc1ccncc1S(=O)(=O)Nc1ccc(-c2nc(NCCN(C)C)c3c(C)n[nH]c3n2)cc1` [Compound 19, N-(4-(4-(2-(dimethylamino)ethylamino)-3-methyl-1H-pyrazolo[3,4-d]pyrimidin-6-yl)phenyl)-4-methoxypyridine-3-sulfonamide] showed a solubility at 2 h in data set [1] (pH 5, fessif) of 297 µM (≈ 143 µg/mL). In data set [1] (pH 7.4, aqueous buffer), this compound yielded a solubility at 2 h of 37 µM (≈ 17.9 µg/mL). The hERG/IC50 in [2] is on record as 1.5. Further, in data set [8], the peak concentration (Cmax) was 9.3 ng/mL and the bioavailability stood at 0.31%.
